Molecular target: T1, IL-17A (Homo sapiens, UniProt Q16552)
T1 sequence (Q16552 24-155): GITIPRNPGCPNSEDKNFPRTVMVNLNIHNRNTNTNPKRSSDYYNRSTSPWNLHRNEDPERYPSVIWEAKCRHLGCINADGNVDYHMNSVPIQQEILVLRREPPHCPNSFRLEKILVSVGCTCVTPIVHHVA
Experiment: Inhibition of IL-17A induced IL-6 release from dermal fibroblast cell line (HDF cell line assay)
Format: cell-based
Details: human dermal fibroblasts stimulated with IL-17A (50 pM) + TNF-α (25 pM); IL-6 measured by HTRF; pIC50 = -log10[IC50], IC50 molar
From the text: Inhibition of IL-17A Induced IL-6 Release from Dermal Fibroblast Cell Line
The purpose of this assay is to test the neutralising ability to IL-17 proteins, in a human primary cell system. Stimulation of normal human dermal fibroblasts (HDF) with IL-17 alone produces only a very weak signal but in combination with certain other cytokines, such as TNFα, a synergistic effect can be seen in the production of inflammatory cytokines, i.e. IL-6.
HDFs were stimulated with IL-17A (50 pM) in combination with TNF-α (25 pM). The resultant IL-6 response was then measured using a homogenous time-resolved FRET kit from Cisbio. The kit utilises two monoclonal antibodies, one labelled with Eu-Cryptate (Donor) and the second with d2 or XL665 (Acceptor). The intensity of the signal is proportional to the concentration of IL-6 present in the sample (Ratio is calculated by 665/620×104).
The ability of a compound to inhibit IL-17 induced IL-6 release from human dermal fibroblasts is measured in this assay.
HDF cells (Sigma #106-05n) were cultured in complete media (DMEM+10% FCS+2 mM L-glutamine) and maintained in a tissue culture flask using standard techniques. Cells were harvested from the tissue culture flask on the morning of the assay using TrypLE (Invitrogen #12605036). The TrypLE was neutralised using complete medium (45 mL) and the cells were centrifuged at 300×g for 3 minutes. The cells were re-suspended in complete media (5 mL) counted and adjusted to a concentration of 3.125×10^4 cells/mL before being added to the 384 well assay plate (Corning #3701) at 40 μL per well. The cells were left for a minimum of three hours, at 37° C./5% CO2, to adhere to the plate.
Compounds were serially diluted in DMSO before receiving an aqueous dilution into a 384 well dilution plate (Greiner #781281), where 5 μL from the titration plate was transferred to 45 μL of complete media and mixed to give a solution containing 10% DMSO.
Mixtures of TNFα and IL-17 cytokine were prepared in complete media to final concentrations of TNFα 25 pM/IL-17A 50 pM, then 30 μL of the solution was added to a 384 well reagent plate (Greiner #781281).
10 μL from the aqueous dilution plate was transferred to the reagent plate containing 30 μL of the diluted cytokines, to give a 2.5% DMSO solution. The compounds were incubated with the cytokine mixtures for 5 h at 37° C. After the incubation, 10 μL was transferred to the assay plate, to give a 0.5% DMSO solution, then incubated for 18-20 h at 37° C./5% CO2.
From the Cisbio IL-6 FRET kit (Cisbio #62IL6PEB) europium cryptate and Alexa 665 were diluted in reconstitution buffer and mixed 1:1, as per kit insert. To a white low volume 384 well plate (Greiner #784075) were added FRET reagents (10 μL), then supernatant (10 μL) was transferred from the assay plate to Greiner reagent plate. The mixture was incubated at room temperature for 3 h with gentle shaking (<400 rpm) before being read on a Synergy Neo 2 plate reader (Excitation: 330 nm; Emission: […]).

IC50	Compound
79.4 nM	Cc1nonc1C(=O)N[C@H](c1cn2ncc([C@@H]3C[C@@](C)(O)CCN3C(=O)C34CC(F)(C3)C4)nc2n1)C1CCC(F)(F)CC1 (single isomer, unassigned) [Example 40]
794 nM	Cc1nonc1C(=O)N[C@H](c1cn2ncc([C@H]3C[C@](C)(O)CCN3C(=O)C34CC(F)(C3)C4)nc2n1)C1CCC(F)(F)CC1 (single isomer, unassigned) [Example 41]
12.6 nM	Cc1nonc1C(=O)N[C@H](c1cn2ncc([C@@H]3C[C@H](O)CCN3C(=O)[C@@H]3CCC(F)(F)CO3)nc2n1)C1CCC(F)(F)CC1 (single isomer, unassigned) [Example 42]
25.1 nM	Cc1nonc1C(=O)N[C@H](c1cn2ncc([C@H]3C[C@@H](O)CCN3C(=O)[C@@H]3CCC(F)(F)CO3)nc2n1)C1CCC(F)(F)CC1 (single isomer, unassigned) [Example 43]
126 nM	Cc1nonc1C(=O)N[C@H](c1cn2ncc([C@@H]3C[C@@H](O)CCN3C(=O)[C@@H]3CCC(F)(F)CO3)nc2n1)C1CCC(F)(F)CC1 (single isomer, unassigned) [Example 44]
3.98 nM	Cc1nonc1C(=O)N[C@H](c1cn2ncc([C@H]3C[C@H](O)CCN3C(=O)[C@@H]3CCC(F)(F)CO3)nc2n1)C1CCC(F)(F)CC1 (single isomer, unassigned) [Example 45]
12.6 nM	Cn1nccc1C(=O)N[C@H](c1cn2ncc([C@@H]3C[C@@](O)(C(F)F)CCN3C(=O)[C@@H]3CCC(F)(F)CO3)nc2n1)C1CCC(F)(F)CC1 (single isomer, unassigned) [Example 46]
631 nM	Cn1nccc1C(=O)N[C@H](c1cn2ncc([C@H]3C[C@](O)(C(F)F)CCN3C(=O)[C@@H]3CCC(F)(F)CO3)nc2n1)C1CCC(F)(F)CC1 (single isomer, unassigned) [Example 47]
6.31 nM	CC(C)n1ncnc1C(=O)N[C@H](c1cn2ncc([C@@H]3C[C@@](O)(C(F)F)CCN3C(=O)[C@@H]3CCC(F)(F)CO3)nc2n1)C1CCC(F)(F)CC1 (single isomer, unassigned) [Example 48]
631 nM	CC(C)n1ncnc1C(=O)N[C@H](c1cn2ncc([C@@H]3C[C@@](O)(C(F)F)CCN3C(=O)[C@@H]3CCC(F)(F)CO3)nc2n1)C1CCC(F)(F)CC1 (single isomer, unassigned) [Example 49]
12.6 nM	CC(C)n1ncnc1C(=O)N[C@H](c1cn2ncc([C@H]3C[C@@H](O)CCN3C(=O)[C@@H]3CCC(F)(F)CO3)nc2n1)C1CCC(F)(F)CC1 (single isomer, unassigned) [Example 50]
251 nM	CC(C)n1ncnc1C(=O)N[C@H](c1cn2ncc([C@H]3C[C@@H](O)CCN3C(=O)[C@@H]3CCC(F)(F)CO3)nc2n1)C1CCC(F)(F)CC1 (single isomer, unassigned) [Example 51]
7.94 nM	CC(C)n1ncnc1C(=O)N[C@H](c1cn2ncc([C@@H]3C[C@](C)(O)CCN3C(=O)[C@@H]3CCC(F)(F)CO3)nc2n1)C1CCC(F)(F)CC1 (single isomer, unassigned) [Example 52]
501 nM	CC(C)n1ncnc1C(=O)N[C@H](c1cn2ncc([C@H]3C[C@@](C)(O)CCN3C(=O)[C@@H]3CCC(F)(F)CO3)nc2n1)C1CCC(F)(F)CC1 (single isomer, unassigned) [Example 53]
50.1 nM	O=C(N[C@H](c1cn2ncc(C3CS(=O)(=O)CCN3C(=O)C34CC(F)(C3)C4)nc2n1)[C@H]1CC[C@H](C(F)(F)F)CC1)OCc1ccccc1 (stereo partly drawn) [Example 13, Benzyl N—[(S)-{3-[4-(3-fluorobicyclo[1.1.1]pentane-1-carbonyl)-1,1-dioxo-1,4-thiazinan-3-yl]imidazo[1,2-b][1,2,4]triazin-6-yl}[4-(trifluoromethyl)cyclohexyl]methyl]carbamate]
12.6 nM	CC(C)n1nccc1C(=O)N[C@H](c1cn2ncc(C3(C(=O)NCC(C)(F)F)CCC(F)(F)CC3)nc2n1)C1CCC(F)(F)CC1 [Example 16, N—[(S)-(4,4-Difluorocyclohexyl){3-[1-(2,2-difluoropropylcarbamoyl)-4,4-difluoro-cyclohexyl]imidazo[1,2-b][1,2,4]triazin-6-yl}methyl]-2-isopropylpyrazole-3-carboxamide]
12.6 nM	Cc1nonc1C(=O)N[C@H](c1cn2ncc(C3(C(=O)NCC(C)(F)F)CCOCC3)nc2n1)C1CCC(F)(F)CC1 [Example 17, N—[(S)-(4,4-Difluorocyclohexyl){3-[4-(2,2-difluoropropylcarbamoyl)tetrahydropyran-4-yl]imidazo[1,2-b][1,2,4]triazin-6-yl}methyl]-4-methyl-1,2,5-oxadiazole-3-carboxamide]
7.94 nM	Cc1nonc1C(=O)N[C@H](c1cn2ncc(C3(C(=O)N4CC(F)(F)C(F)(F)C4)CCN(C4COC4)CC3)nc2n1)C1CCC(F)(F)CC1 [Example 54, N—[(S)-(4,4-Difluorocyclohexyl){3-[1-(oxetan-3-yl)-4-(3,3,4,4-tetrafluoropyrrolidine-1-carbonyl)piperidin-4-yl]imidazo[1,2-b][1,2,4]triazin-6-yl}methyl]-4-methyl-1,2,5-oxadiazole-3-carboxamide]
63.1 nM	Cc1nonc1C(=O)N[C@H](c1cn2ncc(C3(C(=O)N4CC(C(F)(F)F)C4)CCN(C4COC4)CC3)nc2n1)C1CCC(F)(F)CC1 [Example 55, N—[(S)-(4,4-Difluorocyclohexyl)(3-{1-(oxetan-3-yl)-4-[3-(trifluoromethyl)azetidine-1-carbonyl]piperidin-4-yl}imidazo[1,2-b][1,2,4]triazin-6-yl)methyl]-4-methyl-1,2,5-oxadiazole-3-carboxamide]
15.8 nM	Cc1nonc1C(=O)N[C@H](c1cn2ncc(C3(C(=O)NCC(C)(F)F)CCN(C4COC4)CC3)nc2n1)C1CCC(F)(F)CC1 [Example 56, N—[(S)-(4,4-Difluorocyclohexyl){3-[4-(2,2-difluoropropylcarbamoyl)-1-(oxetan-3-yl)-piperidin-4-yl]imidazo[1,2-b][1,2,4]triazin-6-yl}methyl]-4-methyl-1,2,5-oxadiazole-3-carboxamide]

From patent US20240294534A1, “IMIDAZOTRIAZINE DERIVATIVES AS IL-17 MODULATORS” (UCB BIOPHARMA SRL, priority 2021, published 2024)
